Measurements taken from patent publication US11484591B2, “Chemoprevention using controlled-release formulations of anti-interleukin 6 agents, synthetic vitamin A analogues or metabolites, and estradiol metabolites” (OHIO STATE INNOVATION FOUNDATION, priority 2016, dated 2022).
Values after ≈ are worked out from the molar mass of the structure shown. “Also recorded” adds a separate entry of the source.

Experiments:
Fenretinide solubility = assay type: physicochemical
[1] = molecular target: ATP binding sites of Pyk2 (Homo sapiens, UniProt Q14289); settings: cited from earlier work
IL-6 = IL-6 release from OSCC cells (ELISA); assay type: cell-based, human; settings: 5 μM, fresh treatment q.d., base medium, 48 h
Method: Conditioned media from 24-hour sera-deprived JSCC-1, JSCC-2 and JSCC3 cells were analyzed using the Proteome Profiler Human Cytokine XL Array (R&D Systems, Minneapolis, Minn.), with image capture and analyses via the Li-Cor Odyssey imager and Image Studio software (Li-Cor Biosciences, Lincoln, Nebr.). Sera-free conditioned media for IL-6, VEGF, TGF-α and EGF were analyzed by ELISAs (R&D Systems, Minneapolis, Minn.), with data expressed as pg/10^6 cells.
) 0.01% DMSO (vehicle control), 2) 5 μM 4-HPR, 3) 2.5 μM 2-ME, 4) 1 μg/ml tocilizumab (TOC, […]) 5) 5 μM 4-HPR+2.5 μM 2-ME, 6) 5 μM 4-HPR+1 μg/ml TOC, 7) 2.5 μM 2-ME+1 μg/ml TOC, 8) 5 μM 4-HPR+2.5 μM 2-ME+1 μg/ml TOC. Following treatment, conditioned media were collected (ELISAs for IL-6, sIL-6R, TGF-α, VEGF, EGF, R&D Systems, Minneapolis, Minn.) and nuclear and cytosolic lysates (Nuclear Extract Kit, Active Motif, Carlsbad, Calif.) isolated for EMSAs (STAT3, NFκB p50 and p65, TransAM Transcription Factor ELISAs, Active Motif) and cytosolic and nuclear extracts for Westerns (NE-PER Nuclear and Cytoplasmic Extraction Reagents, ThermoFisher Scientific, Waltham Mass.). […]

JSCC1 cells = test: Tumorsphere formation and retention of proliferative capacity; assay type: cell-based, human
Method: JSCC1 cells were seeded at density of 5×10^5 cells in Advanced DMEM+5% FBS+1× GlutaMAX Supplement in Ultra-Low Attachment surface T-25 flasks with DMSO control (0.05%) and 5 μM 4-HPR treatment. Cell suspension cultures were treated for 3 days with fresh treatment every 24 h. While control cultures formed tumorspheres by 24 h, 4-HPR treated cellular interactions were limited to small cell aggregates. (Image scale at 100×.)
Following the treatment described in FIG. 4A above, the JSCC1 control and 4-HPR treated cells were returned to standard tissue culture flasks for seven days in 4-HPR free complete medium (Advanced DMEM+5% FBS+1× GlutaMAX Supplement). […] (Image scale 100×.)
5×10^5 JSCC1 cells (tumorsphere-formation competent unlike JSCC2 and JSCC3 cells) were plated in complete medium with either vehicle control (0.01% DMSO) or 5 μM 4-HPR in Corning Ultra-Low attachment tissue culture flasks (Sigma-Aldrich, St. Louis, Mo.) Suspension cultures received fresh medium and treatment q d for 7 days, with daily images capture via the Nikon DS-Ri+NIS Element. After 7 days, cells and medium were harvested, centrifuged, and cells replated in standard culture flasks containing complete medium. Images were obtained daily and cells harvested after 7 days in culture. Cell number (hemocytometer counts) and viability (trypan blue exclusion) were obtained.

[2] = test system: OSCC migration and invasion; settings: cited from earlier work
[3] = JSCC1 cells pretreated with 5 μM, 7 days in 4-HPR free complete medium

ATP binding sites of Pyk2, sequence (Q14289 whole entry): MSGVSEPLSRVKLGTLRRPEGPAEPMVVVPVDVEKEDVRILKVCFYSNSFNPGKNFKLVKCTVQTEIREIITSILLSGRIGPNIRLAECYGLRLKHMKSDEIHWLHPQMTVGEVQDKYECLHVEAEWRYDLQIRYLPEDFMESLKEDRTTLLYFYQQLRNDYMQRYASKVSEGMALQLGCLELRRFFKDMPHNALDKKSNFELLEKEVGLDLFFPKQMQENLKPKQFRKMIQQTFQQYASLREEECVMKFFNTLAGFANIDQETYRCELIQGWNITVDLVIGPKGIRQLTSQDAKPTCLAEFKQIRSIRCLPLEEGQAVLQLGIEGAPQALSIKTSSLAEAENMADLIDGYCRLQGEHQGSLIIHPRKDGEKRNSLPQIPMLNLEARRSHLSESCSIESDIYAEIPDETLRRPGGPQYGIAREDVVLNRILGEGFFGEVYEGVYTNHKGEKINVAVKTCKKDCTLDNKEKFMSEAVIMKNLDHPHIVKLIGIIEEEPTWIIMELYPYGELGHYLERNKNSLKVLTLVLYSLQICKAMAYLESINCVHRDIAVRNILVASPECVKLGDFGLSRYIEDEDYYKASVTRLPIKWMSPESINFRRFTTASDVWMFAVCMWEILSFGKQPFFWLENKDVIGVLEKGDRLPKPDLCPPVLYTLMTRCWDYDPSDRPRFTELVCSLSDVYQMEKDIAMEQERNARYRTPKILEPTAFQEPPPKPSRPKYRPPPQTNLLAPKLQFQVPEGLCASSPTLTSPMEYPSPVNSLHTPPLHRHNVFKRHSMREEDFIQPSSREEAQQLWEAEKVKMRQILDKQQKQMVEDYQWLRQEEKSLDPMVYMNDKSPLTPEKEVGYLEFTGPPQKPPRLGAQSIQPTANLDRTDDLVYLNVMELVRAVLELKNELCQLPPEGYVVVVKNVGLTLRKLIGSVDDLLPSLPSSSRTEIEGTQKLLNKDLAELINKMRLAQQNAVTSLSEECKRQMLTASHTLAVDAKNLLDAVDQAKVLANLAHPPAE

In the case of `CC1=C(/C=C/C(C)=C/C=C/C(C)=C/C(=O)Nc2ccc(O)cc2)C(C)(C)CCC1` [4-HPR, 4-hydroxy(phenyl)retinamide], the water solubility (Fenretinide solubility) is given as “below HPLC detection limit”, the solubility (Fenretinide solubility; PBS+0.084% Tween 80, same as in bovine serum) is given as 21 µg/mL (≈ 53.6 µM) and the “binding to ATP binding site” value [1] is given as “binds with high affinity”. For the same compound, the “increase of IL-6 release” value (IL-6; JSCC1 cells) was about 50%, the “increase of IL-6 release” value (IL-6; JSCC2 cells) was about 20% and the “reattachment and viability after re-plating in standard flasks” value (JSCC1 cells; [3]) was “failed to reattach; also recorded: failed to reattach and were uniformly non-vital”. For the same compound, the “trypan blue uptake after re-plating” value (JSCC1 cells; [3]) was 100%, the tumorsphere formation (JSCC1 cells; JSCC1 cells, 5 μM, low attachment flasks) was “inhibits tumorsphere formation” and the “anoikis in tumorsphere-competent cells” value (JSCC1 cells; discussion) was “induced anoikis”. The “OSCC migration and invasion” value [2] was “significantly inhibits”.
